Data taken from publication PMC3355305, “Localized Dimerization and Nucleoid Binding Drive Gradient Formation by the Bacterial Cell Division Inhibitor MipZ” (Molecular Cell, 2012).

Tests used:
MipZ [1] = assay: Transient kinetic (stopped-flow) analysis of mant nucleotide binding to wild-type MipZ; parameters: species or system Caulobacter crescentus; conditions: for kon: 30°C, buffer P; for Kd: calculated KD = koff/kon; for koff: displacement by excess unlabeled nucleotide
Description: (§1) Once released from the dimeric complex, MipZ monomers must undergo nucleotide exchange to enter the next reaction cycle (Figure 2A). To clarify the requirements for the exchange reaction, we studied the nucleotide binding kinetics of MipZ by monitoring its interaction with methylanthraniloyl (mant)-labeled ADP and ATP analogs (Figure S3). Since the mant group blocks dimer formation, our measurements specifically focused on the initial nucleotide-binding step without interference from subsequent reactions.
(§2) Figure S3. Steady-state and transient kinetic analysis of nucleotide binding to MipZ, Related to Table 2.
(§3) (A) Fluorescence emission spectra of mant-ATP. MipZ (1 µM) and/or mant-ATP (60 µM) were mixed in buffer BC containing no (+ Mg2+) or 10 mM (- Mg2+) EDTA. Emission spectra were recorded in a PC1 photon-counting spectrofluorimeter (ISS) using fluorescence resonance energy transfer (FRET) and an excitation wavelength of 290 nm.
(§4) (B) Association of MipZ with mant nucleotides.
(§5) (data not shown), necessitating the use of ADP and ATP analogues that carried a fluorescent methylanthraniloyl (mant) group attached to the 2'- or 3'-hydroxy group of the ribose moiety. Due to the bulkiness of the mant group and a critical role of these hydroxy groups in MipZ dimerization, the modified nucleotides are predicted to block dimer formation, consistent with their failure to be hydrolyzed by MipZ or mediate MipZ self-association in the SPR assay (data not shown). This circumstance allowed us to focus the measurements on the initial nucleotide binding step without interference from subsequent reactions.
(§6) Interaction of the mant group with the protein surface led to a marked increase in fluorescence (panel A). Consistent with the easy accessibility of the nucleotide-binding site and the lack of major conformational changes, the transients recorded after rapid mixing of MipZ with mant nucleotides could be fitted to single-exponential equations, indicating single-step binding reactions.
(§7) Shown is a typical curve representing the change in mant fluorescence upon binding of mant-ATP (30 µM) to MipZ (1 µM).
(§8) Fitting of the data yielded a pseudo-first order rate constant (kobs) of 4.7 s-1.
(§9) (C) Determination of the second-order association rate constants (kon). The pseudo-first order rate constants for the association of […]
(§10) determining the second-order rate constant of the association reaction. Shown is a representative graph in which the kobs values measured for mant-ATP were plotted against the corresponding mant-ATP concentrations. Fitting of the data to the linear function kobs=kon[mant-ATP]+koff yielded a value of 6.8 x 104 M-1s-1 for kon.
(§11) (D) Dissociation of mant nucleotides from MipZ. In order to determine the dissociation rate constants (koff), we monitored the displacement of mant-labeled nucleotides from MipZ by an excess of unlabeled nucleotide. All transients obtained could be fitted to single-exponential functions. Shown is a typical curve representing the change in mant fluorescence upon dissociation of mant-ATP (30 µM) from MipZ (1 µM) in the presence of 2 mM ATP. […]
(§12) […]
(§13) (Murshudov et al. 1997) for apo-MipZ in crystal form 2. Transient kinetic analysis The structure of apo-MipZ in crystal form 1 was solved Transient kinetic experiments were conducted at 30°C by multiple-wavelength anomalous diffraction (MAD), in a Hi-Tech Scientific SF-61MX stopped-flow spectro- […]

MipZ G14V = assay: Transient kinetic analysis of mant nucleotide binding to MipZ G14V; parameters: species or system Caulobacter crescentus; conditions: for Kd: calculated KD = koff/kon
Description: as §1, §2, §3, §4, §5, §6, §7, §8, §9, §10, §11, §12, §13

MipZ K13A = assay: Transient kinetic analysis of mant nucleotide binding to MipZ K13A; parameters: species or system Caulobacter crescentus; conditions: for Kd: calculated KD = koff/kon
Description: as §1, §2, §3, §4, §5, §6, §7, §8, §9, §10, §11, §12, §13

MipZ-D42A [2] = assay: Transient kinetic analysis of mant nucleotide binding to MipZ D42A; parameters: species or system Caulobacter crescentus; conditions: for Kd: calculated KD = koff/kon
Description: as §1, §2, §3, §4, §5, §6, §7, §8, §9, §10, §11, §12, §13

MipZ-K18Q = assay: Transient kinetic analysis of mant nucleotide binding to MipZ K18Q; parameters: species or system Caulobacter crescentus
Description: as §1, §2, §3
(B) Association of MipZ with mant nucleotides. […]
as §6
Shown is a typical curve representing the change in mant fluorescence upon binding of mant-ATP (30 µM) to MipZ (1 µM). […]
determining the second-order rate constant of the association reaction. Shown is a representative graph in which the kobs values measured for mant-ATP were plotted against the corresponding mant-ATP concentrations. […]
as §11, with “All transients obtained could be fitted to single-exponential functions.” left out

[3] = molecular target: the molecule itself; assay: SPR; ATP; printed as 0.83 min-1
[4] = molecular target: the molecule itself; assay: SPR; 1 mM ATP (printed 0.83 min-1)
[5] = molecular target: the molecule itself; assay: SPR; 1 mM ATPγS (printed 0.18 min-1)
[6] = molecular target: the molecule itself; assay: SPR; 1 mM ATP (printed 0.067 min-1)
[7] = molecular target: the molecule itself; assay: SPR; ATP; printed as 0.067 min-1
MipZ [8] = molecular target: T1, MipZ (Caulobacter crescentus, UniProt Q9A6C9 1-278); assay: SPR; ATP; SPR: buffer P2 or buffer BC (Mg2+-containing) with 2 mM nucleotide, composition not in material; EMSA: 1.25 mM nucleotide, 270 nM-5.6 uM protein, room temperature; conditions: protein: recombinant; chain copies: 2; label: biotin; blunt
T1 sequence: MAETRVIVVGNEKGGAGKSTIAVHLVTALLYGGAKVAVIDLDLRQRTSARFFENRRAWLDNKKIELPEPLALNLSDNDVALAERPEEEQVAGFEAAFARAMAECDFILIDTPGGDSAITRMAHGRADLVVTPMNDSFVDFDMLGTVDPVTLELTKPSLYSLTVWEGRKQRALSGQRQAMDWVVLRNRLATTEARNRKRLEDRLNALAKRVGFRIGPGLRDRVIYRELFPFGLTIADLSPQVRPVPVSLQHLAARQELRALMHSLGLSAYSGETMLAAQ

MipZ-D42A [9] = molecular target: T2, MipZ-D42A (Caulobacter crescentus, UniProt Q9A6C9 1-278, D42A); assay: as above; conditions: protein: recombinant; chain copies: 2; label: biotin; blunt
T2 sequence: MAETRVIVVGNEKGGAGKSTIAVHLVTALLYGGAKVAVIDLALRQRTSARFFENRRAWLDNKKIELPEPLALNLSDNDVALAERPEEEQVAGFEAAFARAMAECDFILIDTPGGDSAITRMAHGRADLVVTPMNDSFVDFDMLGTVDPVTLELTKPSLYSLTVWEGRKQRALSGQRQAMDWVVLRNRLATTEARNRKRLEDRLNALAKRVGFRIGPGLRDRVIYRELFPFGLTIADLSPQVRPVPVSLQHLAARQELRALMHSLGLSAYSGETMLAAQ

MipZ-D42A [10] = molecular target: T2, MipZ-D42A; assay: SPR; ATP; slower dissociation than WT; SPR: buffer P2 or buffer BC (Mg2+-containing) with 2 mM nucleotide, composition not in material; EMSA: 1.25 mM nucleotide, 270 nM-5.6 uM protein, room temperature; conditions: protein: recombinant; chain copies: 2; label: biotin (immobilized); blunt
ParB = molecular target: T3, ParB (Caulobacter crescentus, UniProt B8GW30 1-304); assay: SPR; ParB alone; SPR: buffer P2 or buffer BC (Mg2+-containing) with 2 mM nucleotide, composition not in material; EMSA: 1.25 mM nucleotide, 270 nM-5.6 uM protein, room temperature; conditions: protein: recombinant; tags: none (native ParB); chain copies: 2; label: biotin (immobilized); blunt
T3 sequence: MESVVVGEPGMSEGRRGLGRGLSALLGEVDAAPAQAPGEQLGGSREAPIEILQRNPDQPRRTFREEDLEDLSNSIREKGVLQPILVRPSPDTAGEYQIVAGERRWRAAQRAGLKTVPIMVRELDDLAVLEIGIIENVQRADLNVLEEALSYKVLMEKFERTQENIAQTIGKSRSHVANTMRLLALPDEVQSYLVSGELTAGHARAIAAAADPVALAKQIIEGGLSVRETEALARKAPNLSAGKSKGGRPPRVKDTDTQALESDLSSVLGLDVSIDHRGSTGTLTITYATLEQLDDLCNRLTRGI

MipZ [11] = molecular target: T1, MipZ; assay: SPR; 2 mM ATP, Mg2+; koff 1.5 min-1 (Fig S5C); SPR: buffer P2 or buffer BC (Mg2+-containing) with 2 mM nucleotide, composition not in material; EMSA: 1.25 mM nucleotide, 270 nM-5.6 uM protein, room temperature; conditions: protein: recombinant; chain copies: 2; label: biotin (immobilized); blunt

## CNc1ccccc1C(=O)O[C@H]1[C@@H](O)[C@H](n2cnc3c(N)ncnc32)O[C@@H]1COP(=O)(O)OP(=O)(O)O [mant-ADP]
MipZ [1]; WT MipZ
  average lifetime (τ = 1/koff) of the MipZ⋅nucleotide complex: about 0.3 s
  kon: 118000 M⁻¹ s⁻¹
  Kd: 26 µM
  koff: 3.1 s⁻¹
MipZ G14V
  koff: 0.9 s⁻¹
  kon: 205000 M⁻¹ s⁻¹
  Kd: 4.5 µM
MipZ K13A
  koff: 3.5 s⁻¹
  kon: 86000 M⁻¹ s⁻¹
  Kd: 41 µM
MipZ-D42A [2]
  koff: 3.8 s⁻¹
  kon: 55000 M⁻¹ s⁻¹
  Kd: 69 µM

## CNc1ccccc1C(=O)O[C@H]1[C@@H](O)[C@H](n2cnc3c(N)ncnc32)O[C@@H]1COP(=O)(O)OP(=O)(O)OP(=O)(O)O [mant-ATP]
MipZ [1]; WT MipZ
  kon: 68000 M⁻¹ s⁻¹
  Kd: 31 µM
  koff: 2.1 s⁻¹
MipZ [1]; mant-ATP 30 µM, MipZ 1 µM
  pseudo-first order rate constant (kobs): 4.7 s⁻¹
MipZ-K18Q
  koff: 7.5 s⁻¹
  kon: 62000 M⁻¹ s⁻¹
MipZ-K18Q; calculated KD = koff/kon
  Kd: 121 µM
MipZ G14V
  koff: 0.2 s⁻¹
  kon: 157000 M⁻¹ s⁻¹
  Kd: 1.3 µM
MipZ K13A
  koff: 2.1 s⁻¹
  kon: 56000 M⁻¹ s⁻¹
  Kd: 38 µM
MipZ-D42A [2]
  koff: 4.5 s⁻¹
  kon: 78000 M⁻¹ s⁻¹
  Kd: 58 µM

B1: MipZ (wild type), hexahistidine-tagged (natural protein)
chain: MAETRVIVVGNEKGGAGKSTIAVHLVTALLYGGAKVAVIDLDLRQRTSARFFENRRAWLDNKKIELPEPLALNLSDNDVALAERPEEEQVAGFEAAFARAMAECDFILIDTPGGDSAITRMAHGRADLVVTPMNDSFVDFDMLGTVDPVTLELTKPSLYSLTVWEGRKQRALSGQRQAMDWVVLRNRLATTEARNRKRLEDRLNALAKRVGFRIGPGLRDRVIYRELFPFGLTIADLSPQVRPVPVSLQHLAARQELRALMHSLGLSAYSGETMLAAQ
[3]
  koff: 0.0138 s⁻¹
[4]
  koff: 0.0138 s⁻¹
[5]
  koff: 0.003 s⁻¹

B2: MipZ-D42A, hexahistidine-tagged (natural protein)
chain: MAETRVIVVGNEKGGAGKSTIAVHLVTALLYGGAKVAVIDLALRQRTSARFFENRRAWLDNKKIELPEPLALNLSDNDVALAERPEEEQVAGFEAAFARAMAECDFILIDTPGGDSAITRMAHGRADLVVTPMNDSFVDFDMLGTVDPVTLELTKPSLYSLTVWEGRKQRALSGQRQAMDWVVLRNRLATTEARNRKRLEDRLNALAKRVGFRIGPGLRDRVIYRELFPFGLTIADLSPQVRPVPVSLQHLAARQELRALMHSLGLSAYSGETMLAAQ
[6]
  koff: 0.00112 s⁻¹
[7]
  koff: 0.00112 s⁻¹

B3: ran1 (dsDNA)
DNA 1: GAGGCAGACTAGATCTTCTAGTTCGG
DNA 2: CCGAACTAGAAGATCTAGTCTGCCTC
MipZ [8]
  binding result: binds
MipZ-D42A [9]
  binding result: binds

B4: parSmt (dsDNA)
DNA 1: GAGGCTTGTTTGAGCTCAAACATCGG
DNA 2: CCGATGTTTGAGCTCAAACAAGCCTC
MipZ [8]
  binding result: binds
MipZ-D42A [9]
  binding result: binds

B5: parSWT (dsDNA)
DNA 1: GAGGCTTGTTTCACGTGAAACATCGG
DNA 2: CCGATGTTTCACGTGAAACAAGCCTC
MipZ [8]
  binding result: binds
MipZ-D42A [9]
  binding result: binds

B6: ran2 (dsDNA)
DNA 1: GTCGACAGAGTTCGCTAACATCGAGC
DNA 2: GCTCGATGTTAGCGAACTCTGTCGAC
MipZ-D42A [10]
  binding result: binds
ParB
  binding result: no binding
MipZ [11]
  binding result: binds
